Measurements from ChEMBL document CHEMBL3259547, “Selective 5-HT Receptor Modulators May Deliver Focused Targeting with Fewer Adverse Effects” (ACS Med Chem Lett, 2014).

What follows are molecules tested against 5-hydroxytryptamine receptor 7 (Rattus norvegicus) (UniProt P32305) (assay: Modulation of rat 5HT7 receptor by cAMP assay).
Assay type: functional

Sequence of 5-hydroxytryptamine receptor 7 (Rattus norvegicus) (P32305 whole entry): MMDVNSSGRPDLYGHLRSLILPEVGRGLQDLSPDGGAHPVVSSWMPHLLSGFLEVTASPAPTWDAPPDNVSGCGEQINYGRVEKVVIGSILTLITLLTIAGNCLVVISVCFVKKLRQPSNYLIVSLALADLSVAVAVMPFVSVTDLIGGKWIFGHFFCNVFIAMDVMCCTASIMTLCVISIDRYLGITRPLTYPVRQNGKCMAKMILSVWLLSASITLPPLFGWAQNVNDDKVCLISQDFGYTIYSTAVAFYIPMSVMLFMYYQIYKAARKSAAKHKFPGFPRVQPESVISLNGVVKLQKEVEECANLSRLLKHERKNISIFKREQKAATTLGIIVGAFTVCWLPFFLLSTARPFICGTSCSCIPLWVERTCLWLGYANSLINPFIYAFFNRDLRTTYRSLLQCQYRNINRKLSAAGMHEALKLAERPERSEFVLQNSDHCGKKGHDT

Question: For C[C@@H](Oc1ccc(C(F)(F)F)cc1OC1CNC1)c1cccc(C(F)(F)F)c1, which pKb is on record?
Answer: Its pKb is 6.8.

Question: How did the pKb turn out when FC(F)(COc1ccc(Cl)cc1OC1CNC1)c1ccccc1 was run?
Answer: Its pKb is 7.3.

Question: How did the pKb turn out when Cc1nc(COc2ccc(Cl)cc2OC2CNC2)cs1 was run?
Answer: Its pKb is 6.9.

Question: With Clc1cccc(COc2ccc(Br)cc2OC2CNC2)c1 as the molecule, how does the pKb read?
Answer: Its pKb is 7.5.
